Results: paper PMC9412534, “Diindolylmethane Derivatives: New Selective Blockers for T-Type Calcium Channels” (Membranes, 2022)
Entries after “also recorded” stand apart in the source; their conditions may differ.

How the values were obtained:
[1] = target: T1, recombinant hCaV3.3 channels (Homo sapiens, UniProt Q9P0X4); experiment: Whole-cell patch-clamp (QPatch), CaV3.3; type: cell-based; conditions: for IC50: whole-cell current, holding potential −90 mV, n = 3–5; for extent of block of CaV3.3 whole-cell inward Ca2+ current: QPatch
T1 construct: the only CaV3.3-expressing cells described
Protocol: The human embryonic kidney 293 (HEK 293) cell lines (from Emmanuel Bourinet, Montpellier, France) stably expressing CaV3.2 or CaV3.3 were cultured under 5% carbon dioxide at 37 °C in Dulbecco’s Modified Eagle Medium (DMEM) Glutamax (Gibco, Life Technologies, Carlsbad, CA, USA) supplemented with 10% (v/v) fetal bovine serum (FBS), 100 U/mL penicillin, 100 μg/mL streptomycin (Gibco, Life Technologies, Carlsbad, CA, USA), and 750 μg/mL geneticin (G418) (Gibco, Life Technologies). The Chinese Hamster Ovary (CHO) cell lines (Emmanuel Bourinet, Montpellier, France) expressing CaV3.1 were cultured under 5% carbon dioxide at 37 °C in Alpha Minimum Essential Media (MEM) Glutamax (Gibco, Life Technologies), supplemented with 10% (v/v) fetal bovine serum (FBS) and 300 μg/mL geneticin (G418) (Gibco, Life Technologies). The human neuroblastoma SH-SY5Y cells (Victor Diaz, Goettingen, Germany) were cultured under 5% carbon dioxide at 37 °C in RPMI 1640 antibiotic-free medium (Invitrogen, Carlsbad, CA, USA), supplemented with 15% FBS and 2 mM GlutaMAX™ (Invitrogen). D-PBS (Gibco, Life Technologies) was used to wash the cells, and 0.25% Trypsin-EDTA (Gibco, Life Technologies) was used to detach cells from the flask surface. They were split in a ratio of 1:5 (ideally 1000 cells/cm^2) when they reached 70–80% confluence (every 2–3 days). Transiently transfected CaV3.1 HEK293 T cells were used in FLIPR Assays. HEK 293 T cells were cultured under 5% carbon dioxide at 37 °C in DMEM supplemented with 10% (v/v) FBS. D-PBS was used to wash the cells, and 0.25% Trypsin-EDTA was used to detach cells from the flask surface. The cells were split and seeded at 6 million cells per T175 flask, to reach 70–80% confluence after 24 h. The next day, 12 μg DNA of human CaV3.1 was incubated in 900 μL serum-free DMEM with 36 μL FuGENE HD transfection reagent (Promega Corporation, Madison, WI, USA) (1:3 DNA/Fugene ratio) for 20 min, and then the mixture was added into the cell flask slowly, drop by drop. After the transfection, the cells were cultured under 5% carbon dioxide at 37 °C for 24 h and then moved to a 28 °C incubator.
Whole-cell patch-clamp experiments were performed on an automated electrophysiology platform QPatch 16 X (Sophion Bioscience A/S, Ballerup, Denmark) in single-hole configuration using 16-channel planar patch chip QPlates (Sophion Bioscience A/S). The extracellular recording solution contained, in mM: TEACl 157, MgCl2 0.5, CaCl2 5, and HEPES 10; pH 7.4 adjusted with TEAOH; and osmolarity 320 mOsm. The intracellular pipette solution contained, in mM: CsF 140, EGTA 1, HEPES 10, and NaCl 10; pH 7.2 adjusted with CsOH; and osmolarity 325 mOsm. Compounds were diluted in extracellular recording solution with 0.1% BSA at the concentrations stated (DMSO ≤ 0.1%), and the effects of compounds were compared to the control (extracellular solution with 0.1% BSA) parameters within the same cell. Compounds’ incubation time varied from two (for the highest concentration) to five (for the lowest concentration) minutes by applying the voltage protocol 10–30 times at 10 s intervals to ensure steady-state inhibition was achieved. The effects of compounds were obtained using 200 ms voltage steps to peak potential from a holding potential of −90 mV. Current–voltage (I–V) relationships were obtained by holding the cells at a potential of −100 mV before applying 50 ms pulses to potentials from −75 to +50 mV every 5 s in 5 mV increments. […]

[2] = tested on: voltage-gated calcium channels (VGCC); experiment: VGCC FLIPR cell-based assays, all channels (overall observation); parameters: species or system human
Protocol: HEK 293 cells stably expressing CaV3.2 or CaV3.3 were seeded into 384-well black wall clear bottom plates (Corning) at a density of 30,000 cells per well. Transiently transfected CaV3.1HEK293 T cells were seeded into 384-well black wall clear bottom plates at a density of 60,000 cells per well. Once the cells reached 90–95% confluence after 24 h, the media were removed from the wells and replaced with 20 μL of 10% calcium 4 dye (Molecular Devices, Sunnyvale, CA, USA) in HBSS-HEPES (containing 5 mM KCl, 10 mM HEPES, 140 mM NaCl, 10 mM glucose, and 0.5 mM CaCl2, pH 7.4) with 0.1% bovine serum albumin (BSA). The cells were incubated for 30 min at 37 °C in the presence of 5% carbon dioxide. Each well on the reagent plates for the first addition contained 15 μL different concentrations of compounds dissolved in HBSS-HEPES containing 0.1% BSA and <0.5% DMSO and was incubated for 20 min after loaded. Positive and negative controls contained 15 μL of HBSS-HEPES (0.1% BSA) alone. The plates were placed in the FLIPR^TETRA (Molecular Devices, Sunnyvale, CA, USA) programmed to measure maximum fluorescence intensity following a second addition of the agonist 5 mM CaCl2. The fluorescence readings were recorded and converted as described previously, and HBSS-HEPES (0.1% BSA) was used in the second addition as a negative control.
SH-SY5Y cells were seeded into 384-well black wall clear bottom plates at a density of 15,000 cells per well, resulting in 90–95% confluence after 24 h. The media were then removed from the wells and replaced with 20 μL of 10% calcium 4 dye (Molecular Devices) in physiological salt solution (PSS) (containing 5.9 mM KCl, 1.4 mM MgCl2, 10 mM HEPES, 1.2 mM NaH2 PO4, 5 mM NaHCO3, 140 mM NaCl, 11.5 mM glucose, and 1.8 mM CaCl2, pH 7.4) with 0.1% BSA. As reported, for N-type calcium channel FLIPR assays the cells were pre-incubated with 10 µM nifedipine added in the dye to ensure full inhibition of L-type calcium responses. For L-type calcium channel FLIPR assays, the cells were pre-incubated with 1 µM CVID added in the dye to ensure full inhibition of N-type calcium responses. Positive control on the first reagent plate contained 15 μL of PSS (0.1% BSA), whereas PSS (0.1% BSA) containing 1 µM CVID and 10 µM nifedipine (final concentration) was used as a negative control. The fluorescence readings were recorded and converted as described previously, and agonist containing 90 mM KCl + 5 mM CaCl2 was used in the second addition.

T1 sequence (Q9P0X4 whole entry): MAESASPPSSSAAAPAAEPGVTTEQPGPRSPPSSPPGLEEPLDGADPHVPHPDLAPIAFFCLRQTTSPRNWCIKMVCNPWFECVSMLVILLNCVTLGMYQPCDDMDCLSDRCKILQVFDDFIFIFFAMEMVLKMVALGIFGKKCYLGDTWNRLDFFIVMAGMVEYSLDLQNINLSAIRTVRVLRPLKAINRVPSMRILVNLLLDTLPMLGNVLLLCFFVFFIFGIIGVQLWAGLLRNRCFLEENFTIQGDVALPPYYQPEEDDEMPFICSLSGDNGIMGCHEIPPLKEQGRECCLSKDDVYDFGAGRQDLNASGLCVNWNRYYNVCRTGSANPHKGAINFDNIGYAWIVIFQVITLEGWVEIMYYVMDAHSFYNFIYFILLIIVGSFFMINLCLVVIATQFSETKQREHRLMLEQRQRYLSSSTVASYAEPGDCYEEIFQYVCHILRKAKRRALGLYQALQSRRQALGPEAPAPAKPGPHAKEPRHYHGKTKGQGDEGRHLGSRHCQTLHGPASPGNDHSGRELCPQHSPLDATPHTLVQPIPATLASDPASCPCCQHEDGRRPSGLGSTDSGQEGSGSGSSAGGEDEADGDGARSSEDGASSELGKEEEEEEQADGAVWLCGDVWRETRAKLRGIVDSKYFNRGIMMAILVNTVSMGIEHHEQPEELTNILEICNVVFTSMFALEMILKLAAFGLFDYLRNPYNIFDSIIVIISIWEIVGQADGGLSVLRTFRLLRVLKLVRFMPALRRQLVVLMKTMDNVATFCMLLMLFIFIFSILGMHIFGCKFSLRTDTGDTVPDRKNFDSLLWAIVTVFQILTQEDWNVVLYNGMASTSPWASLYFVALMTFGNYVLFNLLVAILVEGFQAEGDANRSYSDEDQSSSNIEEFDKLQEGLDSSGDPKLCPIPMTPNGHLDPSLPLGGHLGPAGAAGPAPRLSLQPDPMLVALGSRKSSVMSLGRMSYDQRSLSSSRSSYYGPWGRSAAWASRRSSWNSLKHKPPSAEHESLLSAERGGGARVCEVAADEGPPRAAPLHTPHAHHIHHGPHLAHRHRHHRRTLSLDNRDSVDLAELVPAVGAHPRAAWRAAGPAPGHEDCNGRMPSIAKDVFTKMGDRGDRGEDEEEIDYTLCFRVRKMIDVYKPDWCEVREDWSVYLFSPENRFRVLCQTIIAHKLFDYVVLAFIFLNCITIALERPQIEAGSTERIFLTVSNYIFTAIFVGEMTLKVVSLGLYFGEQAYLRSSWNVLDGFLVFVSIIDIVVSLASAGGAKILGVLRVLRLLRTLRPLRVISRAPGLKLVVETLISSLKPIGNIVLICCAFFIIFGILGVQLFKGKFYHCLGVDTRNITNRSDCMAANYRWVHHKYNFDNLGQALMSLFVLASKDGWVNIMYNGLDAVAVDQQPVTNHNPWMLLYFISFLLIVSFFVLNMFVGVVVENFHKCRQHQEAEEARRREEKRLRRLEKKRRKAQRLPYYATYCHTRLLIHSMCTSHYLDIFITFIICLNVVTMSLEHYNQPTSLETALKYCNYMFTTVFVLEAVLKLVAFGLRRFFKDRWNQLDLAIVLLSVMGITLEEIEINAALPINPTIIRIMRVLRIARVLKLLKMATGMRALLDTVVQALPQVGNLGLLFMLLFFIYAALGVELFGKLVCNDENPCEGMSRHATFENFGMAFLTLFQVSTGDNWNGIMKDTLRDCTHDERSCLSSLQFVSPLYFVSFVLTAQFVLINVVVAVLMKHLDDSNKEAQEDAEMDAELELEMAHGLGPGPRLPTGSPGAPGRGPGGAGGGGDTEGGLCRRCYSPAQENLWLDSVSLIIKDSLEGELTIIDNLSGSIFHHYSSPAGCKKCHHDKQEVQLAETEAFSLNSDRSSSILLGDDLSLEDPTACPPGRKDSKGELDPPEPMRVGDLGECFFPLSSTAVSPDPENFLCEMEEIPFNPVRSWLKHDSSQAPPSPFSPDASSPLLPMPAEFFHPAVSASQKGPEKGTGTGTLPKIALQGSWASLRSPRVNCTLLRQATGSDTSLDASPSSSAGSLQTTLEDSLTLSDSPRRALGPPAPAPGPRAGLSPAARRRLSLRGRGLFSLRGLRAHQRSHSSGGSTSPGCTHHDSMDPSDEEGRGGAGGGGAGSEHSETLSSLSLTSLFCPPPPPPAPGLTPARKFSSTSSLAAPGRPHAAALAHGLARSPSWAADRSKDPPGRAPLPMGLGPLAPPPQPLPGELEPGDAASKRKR

Row | IC50 [1] | SMILES | extent of block of CaV3.3 whole-cell inward Ca2+ current [1] | inhibition of all the Ca2+ responses [2]
1 | 9.63 ± 0.97 µM | c1ccc2c(Cc3c[nH]c4ccccc34)c[nH]c2c1 [DIM, 3,3′-diindolylmethane, reference compound] |  | 
2 | > 50 µM | O=C(c1c[nH]c2ccccc12)c1c[nH]c2ccccc12 [DIM-one, 3,3′-diindolylmethanone] | poor inhibition | 
3 |  | O=C(c1c[nH]c2cc(Br)ccc12)c1c[nH]c2cc(Br)ccc12 [IV] |  | poor inhibition

Row | SMILES | IC50 [1] | extent of block of CaV3.3 whole-cell inward Ca2+ current [1] | inhibition of all the Ca2+ responses [2]
4 | O=C(c1cn(Cc2ccccc2)c2ccccc12)c1cn(Cc2ccccc2)c2ccccc12 [IX, bis(1-benzyl-1H-indol-3-yl)methanone] | 2.09 ± 0.69 µM | partially blocked; also recorded: only partial inhibition | 
